Experiments:
[1] = system: Aspergillus nidulans; assay: Growth inhibition by NaD1 (microtitre OD595); format: cell-based
Source text: (§1) Antifungal activity against Fusarium oxysporum f. sp. vasinfectum (Fov, Australian isolate VCG01111 isolated from cotton; from Wayne O'Neill, Farming Systems Institute, DPI, Queensland, Australia), Thielaviopsis basicola (gift from David Nehl, NSW DPI, Narrabri, Australia), Verticillium dahliae (from Helen McFadden, CSIRO Plant Industry, Black Mountain, Australia), Leptosphaeria maculans (from Barbara Howlett, University of Melbourne, Victoria, Australia) and Aspergillus nidulans (from Michael Hynes, University of Melbourne) was assessed essentially as described in Broekaert et al, 1990. Spores were isolated from sporulating cultures growing in either half-strength potato dextrose broth (PDB) (Fov and T. basicola), Czapeck-Dox Broth (V. dahliae) (Difco Laboratories) or 10% (v/v) clarified V8 medium (L. maculans and A. nidulans) by filtration through sterile muslin. Spore concentrations were determined using a hemocytometer and adjusted to 5×10^4 spores/mL in the appropriate growth medium. Spore suspensions (80 μL) were added to the wells of sterile 96-well flat-bottomed microtitre plates along with 20 μL of filter-sterilized (0.22 μm syringe filter; Millipore) NaD1, or water to give final protein concentrations of 0-10 μM. The plates were shaken briefly and placed in the dark at 25° C. without shaking until the optical density at 595 nm of the water control reached approximately 0.2 (24-72 h depending on growth rate). Hyphal growth was estimated by measuring the optical density at 595 nm using a microtitre plate reader (SpectraMax Pro M2; Molecular Devices). Each test was performed in quadruplicate.

[2] = system: Leptosphaeria maculans; assay: Growth inhibition by NaD1 (microtitre OD595); format: cell-based
Source text: as §1

[3] = system: Thielaviopsis basicola; assay: Growth inhibition by NaD1 (microtitre OD595); format: cell-based
Source text: as §1

[4] = system: Verticillium dahliae; assay: Growth inhibition by NaD1 (microtitre OD595); format: cell-based
Source text: as §1

[5] = system: Fov; assay: Effect of metal ions on NaD1 activity against Fov; format: cell-based, Fusarium oxysporum f. sp. vasinfectum; conditions: NaD1 10 μM, growth of Fov
Source text: as §1
The activity of NaD1 against Fov was examined as described with varying concentrations of CaCl2 (0.1, 0.2, 0.5, 1.0 and 2.0 μM) or MgCl2 (1.0, 2.0, 10, 20 and 50 μM) present in the medium to determine the effects of divalent cations on NaD1 activity.

[6] = system: Fov hyphae; assay: Uptake of NaD1 into hyphae (immunogold EM, bimane fluorescence, immunoblot); format: cell-based, Fusarium oxysporum f. sp. vasinfectum
Protocol: Fov hyphae were grown as described above prior to the addition of NaD1 (10 μM final concentration) to 1 mL of the culture. Samples (100 μL) were collected after 0, 5, 10, 30, 60, 90 and 120 min. Hyphae were collected by centrifugation (10 min, 10,000×g) and the supernatant was stored at −20° C. for analysis. Hyphae were washed (2×10 min) with KCl (0.6 M) to remove any ionically bound protein before they were resuspended in 50 mM CAPS buffer (pH 10.0) containing 10 mM DTT for 20 min. Hyphae were collected by centrifugation and the supernatant, containing cell wall proteins, was collected for analysis. The pellet (containing cells) was resuspended in water and the cells were lysed using glass beads (Sigma, 60 mg) and vortexing (3×10 min). Cellular debris was removed by centrifugation (16,000×g, 10 min) and the supernatant collected for analysis. All samples were then analyzed by SDS-PAGE and immunoblotting.
Fov hyphae were grown for 18 h in half-strength PDB (5 mL) with vigorous shaking at 25° C. from a starting spore suspension of 5×10^4/mL. Hyphae were then treated with 2 μM NaD1 or an equivalent volume of water for 2 h at RT with gentle agitation, and were washed twice in 0.6 M KCl and three times in PBS before fixation in 4% (w/v) paraformaldehyde in PBS for 1 h at 4° C. Hyphae were again washed three times in PBS before dehydration in a standard ethanol series (15 min each, 50%, 70% and 90% ethanol, 3×15 min 100% ethanol). Hyphae were then infiltrated with LR White resin (ProSciTech) for 1 h at RT, followed by 18 h at 4° C., 1 h at RT and 24 h at 60° C. Fresh LR White resin was used at each step. Ultrathin sections were cut and placed on Formvar coated gold grids.
Grids were blocked with PBS containing 8% (w/v) BSA and 1% (v/v) Triton X-100 for 1 h and labeled with α-NaD1 antibodies (2 μg/mL in blocking buffer) for 1 h. Grids were washed in blocking buffer (3×10 min) and labeled with 15 nm gold particle labeled goat α-rabbit IgG antibodies (ProSciTech diluted 1 in 20 for 1 h. Grids were washed again in blocking solution (3×10 min) followed by water (15 min) before being air-dried. A JEOL JEM2010HC x e80 KV transmission electron microscope was used to examine labeled grids. Pictures were taken on Kodak EM film (ProSciTech) and developed in a dark room before scanning on a Hewlett Packard Scanjet 5P scanner.
Hyphae grown for 18 h as described were treated with NaD1-bimane (2 μM) for between 10 min and 6 h. Hyphae were then visualized by fluorescence microscopy using an MWU filter (excitation wavelength of 330-385 nm).

## NaD1: plant defensin isolated from floral tissue of Nicotiana alata (SEQ ID NO:12) (RECKTESNTFPGICITKPPCRKACISEKFTDGHCSKILRRCLCTKPC; Nicotiana alata (NaD1))
[1]; 1 μM NaD1, A. nidulans
  growth inhibited: approximately 65%
[1]; 5 μM NaD1, A. nidulans
  growth inhibited: more than 80%
[1]; Aspergillus nidulans
  IC50: 800 nM
[2]; 1 μM NaD1, L. maculans
  growth retarded: 50%
[2]; 5 μM NaD1, L. maculans
  growth inhibited: more than 80%
[2]; Leptosphaeria maculans
  IC50: 800 nM
[3]; 1 μM NaD1, T. basicola
  growth inhibited: approximately 65%
[3]; 5 μM NaD1, T. basicola
  growth inhibited: more than 80%
[3]; Thielaviopsis basicola
  IC50: 800 nM
[4]; 1 μM NaD1, V. dahliae
  growth inhibited: approximately 65%
[4]; 5 μM NaD1, V. dahliae
  growth inhibited: more than 80%
[4]; Verticillium dahliae
  IC50: 750 nM
[5]
  Ca2+ more antagonistic than Mg2+: greater than 20 times
  CaCl2 concentration giving complete inactivation of NaD1: < 2 mM
  MgCl2 concentration giving complete inactivation of NaD1: 50 mM
[6]; NaD1 10 μM, 2 h, many, but not all, hyphae
  NaD1 in cytoplasm of treated hyphae, immunogold α-NaD1 labeling: heavily labeled
[6]; SDS-PAGE and immunoblotting of cytoplasmic contents
  time after which NaD1 uptake occurred: 20 min
[6]; immunoblotting, decreased slightly afterwards
  time until which NaD1 in the Fov cytoplasm increased: 60 min

Reference: US9889184B2 (priority 2008, dated 2018)
